According to EP0133795B1 (THE McLEAN HOSPITAL CORPORATION, priority 1983, dated 1985):

Experiments:
[1] = system: general motor activity of mice; test: General locomotor activity of mice (Stoelting electronic activity monitor); format: in vivo, Balb/c mice
Protocol: The effect of intraperitoneal (i.p.) injections of test compounds on the general motor activity of mice during a 60-min period was determined in a Stoelting electronic activity monitor. Dose-response curves were obtained from which the half-maximally effective values were calculated and the results are shown in Table V.
The compounds were dissolved in 25% (vols.) propylene glycol in water and injected i.p. into Balb/c mice (18-24 g). Dose-response measurements were obtained for 6 animals per dose or time point. Activity was monitored for 60 min using a Stoelting Electronic Activity Monitor (EAM) apparatus to assess the general motor activity of the animals.
The general locomotor activity of mice was measured in the Stolting activity monitor apparatus during 60 min after an intraperitoneal (i.p.) injection of a test compound.

CAI pyramidal cells = format: cell-based, Sprague-Dawley rats
Protocol: Transverse slices of hippocampus (350-375 µm thick) were prepared from Sprague-Dawley rats (200-300 g) and transferred onto a nylon net fixed over a 1.5 ml superfusion chamber. The slices were maintained at 32-33°C in a humidified atmosphere of 95%/5% 02/C02. The standard medium consisted of (in mM): NaCl, 125; KCI, 3.5; CaC12,2; MgS04, 1.5; NaH2PO4, 1; NaHC03, 24; and glucose, 10. Low chloride medium was prepared by substituting sodium isethionate for sodium chloride.
Extracellular potentials were recorded with NaCI-fitted micropipettes, and stimulus pulses were applied through bipolar platinum wire electrodes. The various drugs were dissolved in fresh medium (without glucose and phosphate) and applied to the surface of the tissue by pressure ejection from a micropipette, Sakai, Swartz and Woody, (1979).
The inhibitory effectiveness of various compounds was investigated by measuring their ability to suppress the extracellular population spike recorded from the hippocampal CAI pyramidal layer and elicited by stimulation of stratum radiatum axons. The amplitude of this monosynaptic population spike is essentially proportional to the number of pyramidal cells discharging in response to a stimulus volley, Andersen, Bliss and Skrede, (1971).
The various compounds were applied as droplets to the pyramidal layer approximately 75 µm from the recording electrode. The volume of a single drug application was about 300 picoliters. […] The volume ejected from each pipette was calibrated prior to use by measuring the diameter of the ejected droplet and adjusting the duration of the pressure pulse (usually 100-500 msec) until a standard diameter was reached. A constant droplet volume was used throughout the experiments. Where dose-response information was required, several pipettes with different drug concentrations were used.

## (3-Cholesteryl)-gamma-Aminobutyrate [Compound 6]
[1]; graded 0-5
  In Vivo Inhibition of General Motor Activity: 5
[1]; i.p., mice
  activity in the general motor activity test (in words): active
[1]; mice, Fig. 1, n = 6 per dose, 60 min
  i.p. injected dose at which motor activity was reduced by 50%: 17 µmol/kg
CAI pyramidal cells
  duration of the effect relative to a similar dose of GABA: roughly an order of magnitude longer
  effect after incubation of slices in PMSF (0.5 mM) for about 45 min: significantly reduced
  effect with picrotoxin (10 µM) in the medium or low chloride medium: essentially eliminate the C-G effect
CAI pyramidal cells; after an approximately half-maximal dose
  recovery of the population spike amplitude to 90% of the pre-droplet control value: about 14 min
CAI pyramidal cells; droplets applied to the CAI pyramidal layer
  inhibition of the evoked population spike: dose-dependent inhibition
